From publication PMC10780244, “Antileishmanial Effect of 1,5- and 1,8-Substituted Fused Naphthyridines” (Molecules, 2023)

Assays:
[1] = test system: two cancer cell lines; parameters: method as in PMID 31229877, PMID 32279049, PMID 33962152; details: cited from earlier work
[2] = test system: murine intestinal organoids; experiment: Drug tolerance in murine intestinal organoids (alamarBlue); format: cell-based, mouse; details: 50 µM, 72 h exposure
Experimental: Amastigotes obtained from mouse bone marrow cells were used to perform a first screening with the complete series of fused 1,5- and 1,8-naphthyridines. […] The toxicity of these selected compounds was assessed in non-infected splenic cells and the cytotoxic concentration (CC50) value obtained was used to calculate the selective index (SI). The oral tolerability of these same compounds was tested by calculating the viability of murine intestinal organoids exposed to two concentrations (50 and 25 µM).
Preparation and maintenance of murine intestinal organoids cultures were performed following the protocols published by Stemcell Technologies™ (https://www.stemcell.com/intestinal-epithelial-organoid-culture-with-intesticult-organoid-growth-medium-mouse-lp.html#protocols, accessed on 14 December 2023) with some modifications. Briefly, a section of small intestine from a Balb/c mouse was extracted and washed with ice-cold PBS. This section was cut into pieces around 2 mm each, washed 15–20 times with ice-cold PBS and incubated with Gentle Cell Dissociation Reagent (Stemcell Technologies™, Vancouver, BC, Canada) for 20 min. Then, the pieces were resuspended in ice-cold PBS with 0.1% BSA and left to settle at the bottom of the tube. The supernatant was collected and filtered through a 70 µm strainer. This process was repeated a total of four times obtaining different fractions. Cells from these fractions were centrifugated at 300× g for 5 min at 4 °C, washed with ice-cold PBS + 0.1% BSA and resuspended on 10 mL of ice-cold DMEM/F12 supplemented with glutamine and HEPES 15 mM (Gibco, Thermo Fisher Scientific, Waltham, MA, USA). After the evaluation under a microscope, the fraction with the highest crypt number but the lowest detritus presence was chosen. This fraction was centrifugated at 200× g for 5 min at 4 °C and the pellet was resuspended in a 1:1 mix of Geltrex GFR LDEV-free (Gibco, Fisher Scientific, Waltham, MA, USA) and IntestiCult™ Organoid Grow Medium Mouse (Stemcell Technologies™, Vancouver, BC, Canada). Fifty microliters of the suspension were pipetted into the middle of each well of a pre-heated 24-well plate and incubated at 37 °C for 10 min to allow polymerization of the matrix. In the end, 500 µL of IntestiCult™ Organoid Grow Medium was added to each well. The plates were incubated at 37 °C and 5% CO2, changing the culture medium every 48 h. Organoids were split 1 into 4 plates after 7 days.
Drug tolerance assays using murine intestinal organoids were performed in 384-well plates, following a protocol based on previous works and introducing several modifications. Briefly, organoids were prepared discarding the culture medium and adding 800 µL of Gentle Cell Dissociation Reagent (Stemcell Technologies™, Vancouver, BC, Canada) directly on top of matrix domes. After 1 min incubation at room temperature, the matrix was broken by pipetting, and the content of the wells was retrieved. The suspension was incubated at room temperature for 10 min on a rocking platform at 20 rpm, and centrifugated at 300× g for 5 min at 4 °C. The pellet was resuspended in 10 mL of ice-cold DMEM/F12 (Gibco, Fisher Scientific, Waltham, MA, USA) supplemented with glutamine and HEPES 15 mM and centrifugated again at 200× g for 5 min at 4 °C. Cells were resuspended in a 1:1 mix of Geltrex GFR LDEV-free and IntestiCult™ Organoid Grow Medium Mouse (Stemcell Technologies™, Vancouver, Canada). The final volume of the mix was calculated to achieve a 4-fold dilution in the final plate compared to the original plate. The mix was distributed in a 384-well plate (8 µL/well) which was incubated at 37 °C for 10 min. After that, 32 µL of IntestiCult™ Organoid Grow Medium Mouse (Stemcell Technologies™, Vancouver, Canada) were added to each well. The plate was incubated at 37 °C and 5% CO2 and after 4 days, mature organoids were exposed to drugs, alone or combined. For positive control, hydrogen peroxide at the final concentration of 0.15 % v/v was used. […]

| SMILES | cytotoxic effects on two cancer cell lines (concentration range) [1] [µM] | Intestinal Organoids 50 µM (%Viability) [2] [%] |
| --- | --- | --- |
| Cc1ccc(S(=O)(=O)N2Cc3c(nc4ncc(Br)cc4c3-c3ccccc3)-c3ccccc32)cc1 [Compound 15b] | 1 to 15 | – |
| O=c1oc2ccccc2c2nc3ncccc3c(-c3ccccc3)c12 [Compound 13a] | 1 to 15 | – |
| Cc1ccc(S(=O)(=O)N2CC3C(Nc4ncccc4C3c3ccccc3)c3ccccc32)cc1 (centres unmarked) [Compound 14a] | 1 to 15 | – |
| COc1ccc2c(n1)[C@@H](c1ccccc1)C1CN(S(=O)(=O)c3ccc(C)cc3)c3ccccc3C1N2 (some centres unmarked) [Compound 8c] | – | >100 |
| Fc1ccc2c(c1)C1Nc3ncccc3[C@@H](c3ccccc3)C1CO2 (some centres unmarked) [Compound 10b] | – | 90 ± 22 |
